Test results published in patent publication US20230107642A1 (Erasca, Inc., priority 2020, published 2023).

target: T1, Cys12 of the KRAS 4B G12C protein (Homo sapiens, UniProt P01116, G12C); experiment: In vitro covalent adduct formation (CAF) assay, LC-MS intact mass; assay type: binding; conditions: 10 uM compound, 60 min incubation
T1 construct: This protein contained 188 amino acids in total, including an N-terminal 6-Histidine tag; made in house; host or cells: E. coli BL21
In short: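 Percent covalent modification from intact-mass LC-MS, by relative free versus adducted protein (adducts within 1 Da of expected mass). Reaction: 10 μM compound with 5 μM E. coli-expressed, GDP-exchanged KRAS 4B G12C in TBS pH 7.4, 4% DMSO, 1 h at 22° C.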

| Structure (SMILES) | % CAF 10 uM @ 60 min [%] |
| --- | --- |
| C=CC(=O)N1[C@H](C)CN(c2nc(=O)n3c4c(c(-c5cc(Cl)c(F)cc5F)c(C(F)(F)F)cc24)SCC2(COC2)C3)C[C@@H]1C [Example 1100, 8′-((3S,5R)-4-acryloyl-3,5-dimethylpiperazin-1-yl)-11′-(5-chloro-2,4-difluorophenyl)-10′-(trifluoromethyl)-2′H,4′H,6′H-spiro[oxetane-3,3′-[1,4]thiazepino [2,3,4-ij]quinazolin]-6′-one] | 88.8 |
| C=CC(=O)N1[C@H](C)CN(c2nc(=O)n3c4c(c(-c5ccc(F)cc5)c(C(F)(F)F)cc24)SC[C@@H]3COC)C[C@@H]1C [Example 1103, (S)-7-((3S,5R)-4-acryloyl-3,5-dimethylpiperazin-1-yl)-10-(4-fluorophenyl)-3-(methoxymethyl)-9-(trifluoromethyl)-2,3-dihydro-5H-[1,4]thiazino[2,3,4-ij]quinazolin-5-one] | 98 |
| C=CC(=O)N1[C@H](C)CN(c2nc(=O)n3c4c(c(-c5ccc(F)cc5F)c(C(F)(F)F)cc24)SCC2(CN(CC)C2)C3)C[C@@H]1C [Example 1104, 8-((3S,5R)-4-acryloyl-3,5-dimethylpiperazin-1-yl)-11-(2,4-difluorophenyl)-1′-ethyl-10-(trifluoromethyl)-2H-spiro[[1,4]thiazepino[2,3,4-ij]quinazoline-3,3′-azetidin]-6(4H)-one] | 97.2 |

same assay, conditions: after 60 min

| Structure (SMILES) | CAF (% binding after 60 min) [%] |
| --- | --- |
| C=CC(=O)N1[C@H](C)CN(c2nc(=O)n3c4c(c(-c5ccc(F)c(Cl)c5)c(C(F)(F)F)cc24)SC[C@H](OCCOC)C3)C[C@@H]1C [Example 1028, (R)-8-((3S,5R)-4-acryloyl-3,5-dimethylpiperazin-1-yl)-11-(3-chloro-4-fluorophenyl)-3-(2-methoxyethoxy)-10-(trifluoromethyl)-3,4-dihydro-2H,6H-[1,4]thiazepino[2,3,4-ij]quinazolin-6-one] | 96 |
| C=CC(=O)N1[C@H](C)CN(c2nc(=O)n3c4c(c(-c5ccc(F)c(Cl)c5)c(C(F)(F)F)cc24)SC[C@@H](OCCOC)C3)C[C@@H]1C [Example 1029, (S)-8-((3S,5R)-4-acryloyl-3,5-dimethylpiperazin-1-yl)-11-(3-chloro-4-fluorophenyl)-3-(2-methoxyethoxy)-10-(trifluoromethyl)-3,4-dihydro-2H,6H-[1,4]thiazepino[2,3,4-ij]quinazolin-6-one] | 96 |
| C=CC(=O)N1[C@H](C)CN(c2nc(=O)n3c4c(c(-c5cc(Cl)c(F)cc5F)c(C(F)(F)F)cc24)SC[C@H](OCCOC)C3)C[C@@H]1C [Example 1030, (3R)-8-((3S,5R)-4-acryloyl-3,5-dimethylpiperazin-1-yl)-11-(5-chloro-2,4-difluorophenyl)-3-(2-methoxyethoxy)-10-(trifluoromethyl)-3,4-dihydro-2H,6H-[1,4]thiazepino[2,3,4-ij]quinazolin-6-one] | 96 |
| C=CC(=O)N1[C@H](C)CN(c2nc(=O)n3c4c(c(-c5cc(Cl)c(F)cc5F)c(C(F)(F)F)cc24)SC[C@@H](OCCOC)C3)C[C@@H]1C [Example 1031, (3S)-8-((3S,5R)-4-acryloyl-3,5-dimethylpiperazin-1-yl)-11-(5-chloro-2,4-difluorophenyl)-3-(2-methoxyethoxy)-10-(trifluoromethyl)-3,4-dihydro-2H,6H-[1,4]thiazepino[2,3,4-ij]quinazolin-6-one] | 95 |
| C=CC(=O)N1[C@H](C)CN(c2nc(=O)n3c4c(c(-c5ccc(F)cc5)c(C(F)(F)F)cc24)SC[C@@H](N)C3)C[C@@H]1C [Example 1032, (S)-8-((3S,5R)-4-acryloyl-3,5-dimethylpiperazin-1-yl)-3-amino-11-(4-fluorophenyl)-10-(trifluoromethyl)-3,4-dihydro-2H,6H-[1,4]thiazepino[2,3,4-ij]quinazolin-6-one] | 92 |
| C=CC(=O)N1[C@H](C)CN(c2nc(=O)n3c4c(c(-c5ccc(F)cc5)c(C(F)(F)F)cc24)SC[C@@H](OCCN(C)C)C3)C[C@@H]1C [Example 1033, (S)-8-((3S,5R)-4-acryloyl-3,5-dimethylpiperazin-1-yl)-3-(2-(dimethylamino)ethoxy)-11-(4-fluorophenyl)-10-(trifluoromethyl)-3,4-dihydro-2H,6H-[1,4]thiazepino[2,3,4-ij]quinazolin-6-one] | 96 |
| C=CC(=O)N1[C@H](C)CN(c2nc(=O)n3c4c(c(-c5ccc(F)cc5F)c(C(F)(F)F)cc24)SC[C@@H](OCCN(C)C)C3)C[C@@H]1C [Example 1034, (3S)-8-((3S,5R)-4-acryloyl-3,5-dimethylpiperazin-1-yl)-11-(2,4-difluorophenyl)-3-(2-(dimethylamino)ethoxy)-10-(trifluoromethyl)-3,4-dihydro-2H,6H-[1,4]thiazepino[2,3,4-ij]quinazolin-6-one] | 97 |
| C=CC(=O)N1[C@H](C)CN(c2nc(=O)n3c4c(c(-c5ccc(F)c(Cl)c5)c(C(F)(F)F)cc24)SC[C@@H](OCCN(C)C)C3)C[C@@H]1C [Example 1035, (S)-8-((3S,5R)-4-acryloyl-3,5-dimethylpiperazin-1-yl)-11-(3-chloro-4-fluorophenyl)-3-(2-(dimethylamino)ethoxy)-10-(trifluoromethyl)-3,4-dihydro-2H,6H-[1,4]thiazepino[2,3,4-ij]quinazolin-6-one] | 97 |
| C=CC(=O)N1[C@H](C)CN(c2nc(=O)n3c4c(c(-c5cc(Cl)c(F)cc5F)c(C(F)(F)F)cc24)SC[C@@H](OCCN(C)C)C3)C[C@@H]1C [Example 1036, (3S)-8-((3S,5R)-4-acryloyl-3,5-dimethylpiperazin-1-yl)-11-(5-chloro-2,4-difluorophenyl)-3-(2-(dimethylamino)ethoxy)-10-(trifluoromethyl)-3,4-dihydro-2H,6H-[1,4]thiazepino[2,3,4-ij]quinazolin-6-one] | 97 |
| C=CC(=O)N1CCN(c2nc(=O)n3c4c(c(-c5ccc(F)cc5)c(C(F)(F)F)cc24)SC[C@H](OC)C3)CC1 [Example 1037, (R)-8-(4-acryloylpiperazin-1-yl)-11-(4-fluorophenyl)-3-methoxy-10-(trifluoromethyl)-3,4-dihydro-2H,6H-[1,4]thiazepino[2,3,4-ij]quinazolin-6-one] | 96 |
| C=CC(=O)N1CCN(c2nc(=O)n3c4c(c(-c5ccc(F)cc5)c(C(F)(F)F)cc24)SC[C@@H](OC)C3)CC1 [Example 1038, (S)-8-(4-acryloylpiperazin-1-yl)-11-(4-fluorophenyl)-3-methoxy-10-(trifluoromethyl)-3,4-dihydro-2H,6H-[1,4]thiazepino[2,3,4-ij]quinazolin-6-one] | 97 |
| C=CC(=O)N1[C@H](C)CN(c2nc(=O)n3c4c(c(-c5ccc(F)cc5)c(Cl)cc24)SC[C@H](OC)C3)C[C@@H]1C [Example 1039, (R)-8-((3S,5R)-4-acryloyl-3,5-dimethylpiperazin-1-yl)-10-chloro-11-(4-fluorophenyl)-3-methoxy-3,4-dihydro-2H,6H-[1,4]thiazepino[2,3,4-ij]quinazolin-6-one] | 96 |
| C=CC(=O)N1[C@H](C)CN(c2nc(=O)n3c4c(c(-c5ccc(F)cc5)c(Cl)cc24)SC[C@@H](OC)C3)C[C@@H]1C [Example 1040, (S)-8-((3S,5R)-4-acryloyl-3,5-dimethylpiperazin-1-yl)-10-chloro-11-(4-fluorophenyl)-3-methoxy-3,4-dihydro-2H,6H-[1,4]thiazepino[2,3,4-ij]quinazolin-6-one] | 96 |
| C=CC(=O)N1CCN(c2nc(=O)n3c4c(c(-c5ccc(F)c(Cl)c5)c(C(F)(F)F)cc24)SC[C@H](OC)C3)CC1 [Example 1041, (R)-8-(4-acryloylpiperazin-1-yl)-11-(3-chloro-4-fluorophenyl)-3-methoxy-10-(trifluoromethyl)-3,4-dihydro-2H,6H-[1,4]thiazepino[2,3,4-ij]quinazolin-6-one] | 97 |
| C=CC(=O)N1CCN(c2nc(=O)n3c4c(c(-c5ccc(F)c(Cl)c5)c(C(F)(F)F)cc24)SC[C@@H](OC)C3)CC1 [Example 1042, (S)-8-(4-acryloylpiperazin-1-yl)-11-(3-chloro-4-fluorophenyl)-3-methoxy-10-(trifluoromethyl)-3,4-dihydro-2H,6H-[1,4]thiazepino[2,3,4-ij]quinazolin-6-one] | 97 |
| C=CC(=O)N1CCN(c2nc(=O)n3c4c(c(-c5ccc(F)c(Cl)c5)c(C(F)(F)F)cc24)SC[C@H](OC)C3)CC1 [Example 1043, (R)-8-(4-acryloylpiperazin-1-yl)-11-(3-chloro-4-fluorophenyl)-3-methoxy-10-(trifluoromethyl)-3,4-dihydro-2H,6H-[1,4]thiazepino[2,3,4-ij]quinazolin-6-one] | 97 |
| C=CC(=O)N1[C@H](C)CN(c2nc(=O)n3c4c(c(-c5ccc(F)c(Cl)c5)c(C(F)(F)F)cc24)SC[C@H](OC)C3)C[C@@H]1C [Example 1045, (R)-8-((3S,5R)-4-acryloyl-3,5-dimethylpiperazin-1-yl)-11-(3-chloro-4-fluorophenyl)-3-methoxy-10-(trifluoromethyl)-3,4-dihydro-2H,6H-[1,4]thiazepino[2,3,4-ij]quinazolin-6-one] | 96 |
| C=CC(=O)N1[C@H](C)CN(c2nc(=O)n3c4c(c(-c5ccc(F)c(Cl)c5)c(C(F)(F)F)cc24)SC[C@@H](OC)C3)C[C@@H]1C [Example 1046, (S)-8-((3S,5R)-4-acryloyl-3,5-dimethylpiperazin-1-yl)-11-(3-chloro-4-fluorophenyl)-3-methoxy-10-(trifluoromethyl)-3,4-dihydro-2H,6H-[1,4]thiazepino[2,3,4-ij]quinazolin-6-one] | 96 |
